Measurements from PubChem BioAssay (NCI).
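Five concentrations, 48 hours, 96-well plates. Abbreviation: GI50, concentration required for 50% inhibition of growth. The concentration for full growth arrest is given as TGI.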

Key:
Test in all cases: NCI-60 cell line screen, 48 h
786-0 renal = tested on: 786-0 renal
A498 renal = tested on: A498 renal
A549 NSCLC = tested on: A549 NSCLC
ACHN renal = tested on: ACHN renal
BT-549 breast = tested on: BT-549 breast
CAKI-1 renal = tested on: CAKI-1 renal
CCRF-CEM leukemia = tested on: CCRF-CEM leukemia
COLO 205 colon = tested on: COLO 205 colon
DU-145 prostate = tested on: DU-145 prostate
EKVX NSCLC = tested on: EKVX NSCLC
HCC-2998 colon = tested on: HCC-2998 colon
HCT-116 colon = tested on: HCT-116 colon
HCT-15 colon = tested on: HCT-15 colon
HL-60(TB) leukemia = tested on: HL-60(TB) leukemia
HOP-62 NSCLC = tested on: HOP-62 NSCLC
HOP-92 NSCLC = tested on: HOP-92 NSCLC
HS 578T breast = tested on: HS 578T breast
HT29 colon = tested on: HT29 colon
IGROV1 ovarian = tested on: IGROV1 ovarian
KM12 colon = tested on: KM12 colon
LOX IMVI melanoma = tested on: LOX IMVI melanoma
M14 melanoma = tested on: M14 melanoma
MALME-3M melanoma = tested on: MALME-3M melanoma
MCF7 breast = tested on: MCF7 breast
MDA-MB-231 breast = tested on: MDA-MB-231 breast
MDA-MB-435 = tested on: MDA-MB-435
MOLT-4 leukemia = tested on: MOLT-4 leukemia
NCI-H226 lung = tested on: NCI-H226 lung
NCI-H23 lung = tested on: NCI-H23 lung
NCI-H460 lung = tested on: NCI-H460 lung
NCI-H522 lung = tested on: NCI-H522 lung
NCI/ADR-RES ovarian = tested on: NCI/ADR-RES ovarian
OVCAR-3 ovarian = tested on: OVCAR-3 ovarian
OVCAR-4 ovarian = tested on: OVCAR-4 ovarian
OVCAR-5 ovarian = tested on: OVCAR-5 ovarian
OVCAR-8 ovarian = tested on: OVCAR-8 ovarian
PC-3 prostate = tested on: PC-3 prostate
RPMI-8226 leukemia = tested on: RPMI-8226 leukemia
RXF 393 renal = tested on: RXF 393 renal
SF-268 CNS = tested on: SF-268 CNS
SF-295 CNS = tested on: SF-295 CNS
SF-539 CNS = tested on: SF-539 CNS
SK-MEL-2 melanoma = tested on: SK-MEL-2 melanoma
SK-MEL-28 melanoma = tested on: SK-MEL-28 melanoma
SK-MEL-5 melanoma = tested on: SK-MEL-5 melanoma
SK-OV-3 ovarian = tested on: SK-OV-3 ovarian
SN12C renal = tested on: SN12C renal
SNB-19 CNS = tested on: SNB-19 CNS
SNB-75 CNS = tested on: SNB-75 CNS
SR leukemia = tested on: SR leukemia
SW-620 colon = tested on: SW-620 colon
T-47D breast = tested on: T-47D breast
TK-10 renal = tested on: TK-10 renal
U251 CNS = tested on: U251 CNS
UACC-257 melanoma = tested on: UACC-257 melanoma
UACC-62 melanoma = tested on: UACC-62 melanoma
UO-31 renal = tested on: UO-31 renal

**Q.** What does the source list for `O=C1C(c2ccccc2)=C(N2CCc3ccccc32)OC1(Cl)Cl`?
**A.** GI50 (786-0 renal): 1820 nM; TGI (786-0 renal): 4.21 µM; GI50 (A498 renal): 3.94 µM; TGI (A498 renal): 14.6 µM; GI50 (A549 NSCLC): 4.71 µM; TGI (A549 NSCLC): 32.7 µM; GI50 (ACHN renal): 2270 nM; TGI (ACHN renal): 7.14 µM; GI50 (BT-549 breast): 2150 nM; TGI (BT-549 breast): 6.26 µM; GI50 (CAKI-1 renal): 1470 nM; TGI (CAKI-1 renal): 3.47 µM; GI50 (CCRF-CEM leukemia): 1470 nM; TGI (CCRF-CEM leukemia): 5.56 µM; GI50 (COLO 205 colon): 1850 nM; TGI (COLO 205 colon): 4.36 µM; GI50 (DU-145 prostate): 1970 nM; TGI (DU-145 prostate): 3.9 µM; GI50 (EKVX NSCLC): 2700 nM; TGI (EKVX NSCLC): 8.94 µM; GI50 (HCC-2998 colon): 2910 nM; TGI (HCC-2998 colon): 8.88 µM; GI50 (HCT-116 colon): 1580 nM; TGI (HCT-116 colon): 8.04 µM; GI50 (HCT-15 colon): 1740 nM; TGI (HCT-15 colon): 4.56 µM; GI50 (HL-60(TB) leukemia): 2210 nM; TGI (HL-60(TB) leukemia): 5.62 µM; GI50 (HOP-62 NSCLC): 12.2 µM; TGI (HOP-62 NSCLC): 35.8 µM; GI50 (HOP-92 NSCLC): 1810 nM; TGI (HOP-92 NSCLC): 5.21 µM; GI50 (HS 578T breast): 2990 nM; TGI (HS 578T breast): > 100 µM; GI50 (HT29 colon): 2250 nM; TGI (HT29 colon): 5.37 µM; GI50 (IGROV1 ovarian): 4.44 µM; TGI (IGROV1 ovarian): 29 µM; GI50 (KM12 colon): 5.13 µM; TGI (KM12 colon): 18.8 µM; GI50 (LOX IMVI melanoma): 1650 nM; TGI (LOX IMVI melanoma): 3.63 µM; GI50 (M14 melanoma): 1770 nM; TGI (M14 melanoma): 3.73 µM; GI50 (MALME-3M melanoma): 1890 nM; TGI (MALME-3M melanoma): 4.38 µM; GI50 (MCF7 breast): 2290 nM; TGI (MCF7 breast): 9.59 µM; GI50 (MDA-MB-231 breast): 2890 nM; TGI (MDA-MB-231 breast): 9.09 µM; GI50 (MDA-MB-435): 3.26 µM; TGI (MDA-MB-435): 11.4 µM; GI50 (MOLT-4 leukemia): 1860 nM; TGI (MOLT-4 leukemia): 5.13 µM; GI50 (NCI-H226 lung): 1800 nM; TGI (NCI-H226 lung): 4.27 µM; GI50 (NCI-H23 lung): 1960 nM; TGI (NCI-H23 lung): 4.67 µM; GI50 (NCI-H460 lung): 3.96 µM; TGI (NCI-H460 lung): 20.2 µM; GI50 (NCI-H522 lung): 1700 nM; TGI (NCI-H522 lung): 4.17 µM; GI50 (NCI/ADR-RES ovarian): 3.21 µM; TGI (NCI/ADR-RES ovarian): > 100 µM; GI50 (OVCAR-3 ovarian): 1910 nM; TGI (OVCAR-3 ovarian): 3.89 µM; GI50 (OVCAR-4 ovarian): 3.38 µM; TGI (OVCAR-4 ovarian): 13.6 µM; GI50 (OVCAR-5 ovarian): 3.57 µM; TGI (OVCAR-5 ovarian): 10.4 µM; GI50 (OVCAR-8 ovarian): 3.58 µM; TGI (OVCAR-8 ovarian): > 100 µM; GI50 (PC-3 prostate): 4.03 µM; TGI (PC-3 prostate): 54.6 µM; GI50 (RPMI-8226 leukemia): 2360 nM; TGI (RPMI-8226 leukemia): 6.09 µM; GI50 (RXF 393 renal): 1440 nM; TGI (RXF 393 renal): 2860 nM; GI50 (SF-268 CNS): 3.92 µM; TGI (SF-268 CNS): 29.4 µM; GI50 (SF-295 CNS): 14.1 µM; TGI (SF-295 CNS): 32.4 µM; GI50 (SF-539 CNS): 2190 nM; TGI (SF-539 CNS): 5.17 µM; GI50 (SK-MEL-2 melanoma): 3.57 µM; TGI (SK-MEL-2 melanoma): 18.6 µM; GI50 (SK-MEL-28 melanoma): 2270 nM; TGI (SK-MEL-28 melanoma): 4.99 µM; GI50 (SK-MEL-5 melanoma): 4.35 µM; TGI (SK-MEL-5 melanoma): 16.9 µM; GI50 (SK-OV-3 ovarian): 13.4 µM; TGI (SK-OV-3 ovarian): 30.9 µM; GI50 (SN12C renal): 2700 nM; TGI (SN12C renal): 8.58 µM; GI50 (SNB-19 CNS): 5.27 µM; TGI (SNB-19 CNS): 22.9 µM; GI50 (SNB-75 CNS): 2520 nM; TGI (SNB-75 CNS): 17.2 µM; GI50 (SR leukemia): 1670 nM; TGI (SR leukemia): 5.92 µM; GI50 (SW-620 colon): 1570 nM; TGI (SW-620 colon): 4.21 µM; GI50 (T-47D breast): 2190 nM; TGI (T-47D breast): 9.86 µM; GI50 (TK-10 renal): 2000 nM; TGI (TK-10 renal): 4.91 µM; GI50 (U251 CNS): 7.34 µM; TGI (U251 CNS): 21.6 µM; GI50 (UACC-257 melanoma): 2530 nM; TGI (UACC-257 melanoma): 8.28 µM; GI50 (UACC-62 melanoma): 2730 nM; TGI (UACC-62 melanoma): 10.8 µM; GI50 (UO-31 renal): 1440 nM; TGI (UO-31 renal): 3.07 µM
